This note sets out measurements from patent US8957024B2, “Composition and methods for reducing opioid-induced pruritus” (priority 2011, dated 2015).

Entries after “also recorded” stand apart in the source; their conditions may differ. Bounds are passed on as bounds.

Series [1] relates to mice. The conditions noted are these: mouse, in vivo.
In a further series the target is T1, HA-MOR1D (Mus musculus, UniProt P42866).
T1 construct: expressed in transfected cells
The experiment in a line: Receptor internalization assay (ELISA, immunofluorescence staining) in HEK 293 cells: MOR1D. The series is classed as cell-based. The conditions noted are these: HEK 293 cells expressing MOR1D, or MOR1D and GRPR; agonist 1 μM. Background: An ELISA detects its analyte on a solid surface through an enzyme-linked reagent.

In another series the target is T2, HA-MOR1 (Mus musculus, UniProt P42866).
T2 construct: expressed in transfected cells
In words: Receptor internalization assay (ELISA, immunofluorescence staining) in HEK 293 cells: MOR1. The series is classed as cell-based. The conditions noted are these: HEK 293 cells expressing MOR1 only, or MOR1 and GRPR; agonist 1 μM.

Another series addresses T3, Myc-GRPR (Mus musculus, UniProt P21729).
T3 construct: expressed in transfected cells
The experiment in a line: Receptor internalization assay (ELISA, immunofluorescence staining) in HEK 293 cells: GRPR. It counts as cell-based. The conditions noted are these: agonist 1 μM, 30 min.

The subject of series [2] is mice. The conditions noted are these: mouse, in vivo. The source holds these as a separate data set.
The subject of series [3] is mice. The experiment in a line: Von Frey assay, naive mice and CFA inflammatory pain model. The series is classed as in vivo, mouse. As for the experimental part: In CFA induced inflammatory pain, mice received an injection of CFA (20 μl, Sigma) into the plantar of the right hindpaw. Mechanical sensitivity was assessed using von Frey assay.
Mechanical sensitivity was assessed using a set of calibrated von Frey filaments (Stoelting). Each filament was applied 5 consecutive times and the smallest filament that evoked reflexive flinches of the paw on 3 of the 5 trials was taken as paw withdrawal threshold.

Series [4] concerns HEK 293 cells expressing MOR1D alone. In words: Calcium imaging, cells expressing MOR1D alone. The series is classed as cell-based, mouse.
Series [5] has as its system HEK 293 cells containing only GRPR. The experiment in a line: Calcium imaging, cells containing only GRPR. It counts as cell-based, mouse.
For series [6], the system named is mice. In words: Gastrin-releasing peptide induced scratching (GIS). The series is classed as in vivo, mouse.
The subject of the next series is MOR1 mRNA. The experiment in a line: qRT-PCR after i.t. siRNA: MOR1 mRNA. The series is classed as in vivo, mouse. The conditions noted are these: spinal cord. The procedure: (§1) Selective siRNA duplexes for mouse Oprm exons, PLCβ1/3 and IP3R3 were intrathecally injected daily for 3 consecutive days. Behavior testing and tissue harvest were carried out at 48 hr after the last injection. RNA was dissolved in diethyl pyrocarbonate-treated PBS and prepared immediately prior to administration by mixing the RNA solution with a transfection reagent, ExGen 500 (Fermentas). The final concentration of RNA was 1.25 μg/5 μl. siRNA or ExGen 500 alone (defined as vehicle) in 5 μl was delivered to the lumbar region of the spinal cord. The injection was given daily for 3 consecutive days (Luo et al., 2005; Tan et al., 2009). Behavior testing and tissue harvest were carried out 48 hr after the last injection.
(§2) LCM were performed as previously described (van Baarlen et al., 2009) with minor modifications. Frozen sections (30 μm thickness) of the lumber spinal cord were cut at −20° C. and stored at −80° C. […]
(§3) RNA was isolated from the LCM sample caps using the PicoPure RNA isolation kit (Arcturus) following manufacturer's recommendations. […] Quantitative PCR amplification was performed in 96-well plates on an Mx3000 QPCR system (Stratagene). […]
(§4) Expression of target mRNA was normalized to expression of 18S rRNA. The differences in mRNA expression between treatments were analyzed using the Comparative CT Method (Gallup et al., 2005). […]

A further series concerns MOR1D mRNA. The experiment in a line: qRT-PCR after i.t. siRNA: MOR1D mRNA. The series is classed as in vivo, mouse. The conditions noted are these: spinal cord. The procedure:
as §1, §2, §3, §4
Background: In qPCR the cycle at which signal appears reflects the starting amount.

The target of a further series is T4, GRPR/MOR1D interaction (Mus musculus, UniProt P21729).
T4 construct: co-IP analysis using the membrane extracts of the spinal cord injected with Tat-MOR1DCT and the vehicle; from tissue; host or cells: lumbar spinal cord membrane extract after intrathecal injection
T4 sequence (P21729 whole entry): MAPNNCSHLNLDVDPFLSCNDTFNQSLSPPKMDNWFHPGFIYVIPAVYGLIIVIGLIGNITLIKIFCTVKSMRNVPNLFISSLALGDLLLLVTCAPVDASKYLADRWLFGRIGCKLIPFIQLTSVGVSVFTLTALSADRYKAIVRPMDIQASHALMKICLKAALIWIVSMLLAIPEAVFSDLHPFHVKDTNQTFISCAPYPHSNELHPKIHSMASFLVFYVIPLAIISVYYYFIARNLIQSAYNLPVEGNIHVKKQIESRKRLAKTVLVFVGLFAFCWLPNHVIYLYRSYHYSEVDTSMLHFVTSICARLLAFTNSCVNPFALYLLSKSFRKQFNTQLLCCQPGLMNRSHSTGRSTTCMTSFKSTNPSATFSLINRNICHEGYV
The conditions noted are these: in vivo.

In series [7] the test system is HEK 293 cells co-expressing MOR1 and GRPR. In words: Calcium imaging, cells co-expressing MOR1 and GRPR. The series is classed as cell-based, mouse.
Where [8] appears, read: HEK 293 cells expressing GRPR alone.

T3 sequence (P21729 whole entry): as above

Turning to 2-APB, the “effect on MIA” value in the series on mice [1] was “no effect on MIA”.

Take `C[C@@H](NC(=O)[C@@H](N)Cc1ccc(O)cc1)C(=O)NCC(=O)N(C)[C@@H](Cc1ccccc1)C(=O)NCCO` [DAMGO]: at HA-MOR1D, the “agonist-induced MOR1D internalization” value was “can be internalized”. Further, the “agonist-induced MOR1 internalization” value on HA-MOR1 is reported as “can be internalized”. Moreover, the “agonist-induced GRPR internalization” value at Myc-GRPR (setting [8]) was “cannot internalize GRPR”.

For `COc1ccc2c(c1)CC[C@@H]1[C@@H]2CC[C@]2(C)[C@@H](NCCCCCCN3C(=O)C=CC3=O)CC[C@@H]12` [U73122], the “effect on MIA” value in the series on mice [1] is “did not impact MIA; also recorded: not significantly affected”.

As for `COC(=O)/C=C/C(=O)N[C@@H]1CC[C@@]2(O)[C@H]3Cc4ccc(O)c5c4[C@@]2(CCN3CC2CC2)[C@H]1O5` [beta-FNA], the “effect on MIS” value in the series with mice [2] was “significantly blocked”.

As for `CN1CC[C@]23c4c5ccc(O)c4O[C@H]2[C@@H](O)C=C[C@H]3[C@H]1C5` [morphine], in the series with mice [3] (i.t. morphine 0.3 nmol, 24 hr after intraplantar CFA), the “mechanical threshold in CFA-treated mice” value is given as “significantly increased mechanical threshold”. Besides, the “calcium response to agonist” value in series [4] was “neither morphine nor GRP generated a calcium response”. Also, the “calcium response to agonist” value in [5] is on record as “failed to evoke Ca2+ spikes”. Moreover, in the series with mice [2], the “time after which no scratches were seen” value is given as 40 min and the “time within which MIS increased dramatically” value is given as no more than 10 min. Also, in the series with mice [1], the “MIA enhancement when the morphine dose increased from 0.3 nmol to 1.0 nmol” value is reported as 81%; the “MIA in mice with acute morphine tolerance” value was “significant reduction of MIA relative to the saline control”; the “MIA in mice with chronic morphine tolerance” value is reported as “significant reduction of MIA relative to the saline control; also recorded: showed antinociceptive tolerance”; the “MIA, dose effect of i.t. morphine” value is listed as “increased in a dose-dependent manner”. Also, in the series on mice [1], the “duration of MIA” value is recorded as “maintained at a maximal level for at least one hr”. Besides, the “agonist-induced GRPR internalization” value on Myc-GRPR (HEK 293 cells co-expressing MOR1 and GRPR) is “failed to induce GRPR internalization; also recorded: when co-expressed with HA-MOR1D but not HA-MOR1”. Moreover, the “agonist-induced GRPR internalization” value on Myc-GRPR (setting [8]) is listed as “failed to induce GRPR internalization”.

Take `C=CCN1CC[C@]23c4c5ccc(O)c4O[C@H]2C(=O)CC[C@@]3(O)[C@H]1C5` [naloxone]: in the series on mice [6] (naloxone 3 mg/kg s.c.), the “effect on GIS” value is “did not change GIS; also recorded: not significantly affected”.

Take “AAACCCUGCAAGAGUUGCAuu (AAACCCUGCAAGAGUUGCAUU; chemistry not given here) [exon 7 siRNA, siRNA duplex for mouse Oprm exon 7]”: the “effect of siRNA knockdown on MIA” value with mice [1] was “had no effect on MIA”.

In the case of D-Phe-6-Bn(6-13)OMe [GRPR antagonist], the “effect on analgesic effect of intrathecal morphine in CFA model” value with mice [3] (GRPR antagonist 1.0 nmol co-injection, morphine 0.3 nmol i.t.) was “not significantly affected”. For the same compound, the “effect of the agent itself on acute pain, von Frey” value with mice [3] (i.t., without morphine) is on record as “no significant effect on acute pain; also recorded: did not significantly affect the acute pain”. For the same compound, in the series with mice [1], the “effect of the agent itself on acute pain, tail immersion assay” value was “no significant effect on acute pain; also recorded: did not significantly affect the acute pain” and the “effect on MIA” value is “remained unchanged; also recorded: not significantly affected”.

Turning to “UCUGGAAGCAGAAACUGCUuu (UCUGGAAGCAGAAACUGCUUU; chemistry not given here) [exon 4 siRNA, siRNA duplex for mouse Oprm exon 4]”, the “spinal MOR1 mRNA level” value with MOR1 mRNA was “selectively decreased; also recorded: significantly knocked down”. Moreover, the “effect of siRNA knockdown on MIA” value in the series with mice [1] is reported as “markedly attenuated MIA; also recorded: significantly reduced morphine analgesic effect”.

As for “UGAGGAACCUUCUUCCUGAuu (UGAGGAACCUUCUUCCUGAUU; chemistry not given here) [exon 9 siRNA, siRNA duplex for mouse Oprm exon 9]”, the “effect of siRNA knockdown on GIS” value with mice [6] (mouse, in vivo) is given as “no significant reduction of GIS; also recorded: not affected”. In addition, in the series on MOR1D mRNA, the “spinal MOR1D mRNA level” value is “significantly reduced”. Also, in the series with mice [1], the “effect of siRNA knockdown on MIA” value is recorded as “had no effect on MIA”.

Take YGRKKRRQRRRRNEEPSS [Tat-MOR1DCT]: the “effect on GIS” value in the series on mice [6] (mouse, in vivo) is listed as “unperturbed; also recorded: without affecting GIS”. Also, the “amount of GRPR precipitated by MOR1D antibody (GRPR/MOR1D interaction)” value with GRPR/MOR1D interaction was “significantly reduced the amount of GRPR precipitated by MOR1D antibody; also recorded: markedly reduces co-immunoprecipitation of GRPR and MOR1D; also recorded: decreased GRPR/MOR1D interaction”. Further, the “effect on MIA” value with mice [1] is on record as “unperturbed; also recorded: had no effect on MIA”.

For gastrin-releasing peptide [GRP], the “GIS in MOR KO vs wild-type littermate mice” value with mice [6] (i.t. GRP) is reported as “normal; also recorded: comparable”. Further, the entries for the “calcium response to agonist” value in series [4] and in series [7] were “neither morphine nor GRP generated a calcium response” and “they responded to GRP”, respectively. In addition, the “agonist-induced MOR1D internalization” value at HA-MOR1D was “neither MOR1D nor MOR1 internalized; also recorded: failed to cause MOR1D internalization”. For the same compound, the “agonist-induced MOR1 internalization” value at HA-MOR1 is on record as “neither MOR1D nor MOR1 internalized”.
